Legend:
p38α = tested on: p38α; design: method as in earlier work; settings: cited from earlier work
BRAF^V600E = tested on: BRAF^V600E; design: method as in earlier work; settings: cited from earlier work
four cancer cell lines = tested on: four cancer cell lines; design: method as in PMID 35667253; settings: read-out: GI50 against the tested four cancer cell lines; cited from earlier work
EGFR = biological target: T1, EGFR (Homo sapiens, UniProt P00533); design: method as in PMID 35667253; settings: cited from earlier work
T1 construct: cytoplasmic domain (EGFR -CD, amino acids 645–1186); His6 (N); made in house; host or cells: Sf-9 insect cells (baculovirus, pBlueBacHis2B / pFASTBacHTc)
T1 sequence (P00533 669-1210): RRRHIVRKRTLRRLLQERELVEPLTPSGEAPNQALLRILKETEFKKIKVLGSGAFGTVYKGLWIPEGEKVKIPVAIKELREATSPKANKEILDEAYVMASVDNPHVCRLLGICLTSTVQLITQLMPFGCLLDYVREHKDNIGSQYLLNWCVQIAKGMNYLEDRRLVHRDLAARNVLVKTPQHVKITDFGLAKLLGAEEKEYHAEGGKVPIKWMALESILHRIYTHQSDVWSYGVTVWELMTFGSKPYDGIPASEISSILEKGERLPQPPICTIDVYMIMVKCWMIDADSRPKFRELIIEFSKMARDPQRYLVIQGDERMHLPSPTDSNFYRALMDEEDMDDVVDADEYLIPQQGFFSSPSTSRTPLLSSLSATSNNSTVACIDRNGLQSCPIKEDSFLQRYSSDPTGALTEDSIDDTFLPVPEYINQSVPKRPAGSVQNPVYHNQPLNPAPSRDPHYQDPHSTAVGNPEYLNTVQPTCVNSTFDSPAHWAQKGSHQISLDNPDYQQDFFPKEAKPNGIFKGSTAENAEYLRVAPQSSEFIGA

CDK2 = tested on: CDK2; design: method as in PMID 35667253; settings: cited from earlier work
c-Met = tested on: c-Met; design: method as in PMID 35667253; settings: cited from earlier work
[1] = MTT cell viability assay on normal mammary epithelial cells; type: cell-based; settings: human, MCF-10A mammary epithelial cells, MCF-10A normal cells, 4 days incubation
Experimental: A human mammary gland epithelial (MCF-10A) normal cell line was used to perform the viability test. The viability of compounds VIa-k was determined using the MTT assay after 4 days of incubation with MCF-10A cells[26]^,[27].
The MTT assay was used to assess how the synthetic compounds impacted the viability of mammary epithelial cells (MCF-10A)[26]^,[27]. Appendix A. […]
4.2. Biological evaluation
4.2.1. Cytotoxic activity using MTT Assay and evaluation of IC50
MTT assay was carried out to study the effect of compounds on mammary epithelial cells (MCF-10A)26,27. The medium in which cells were propagated contained Dulbecco's modified Eagle's medium (DMEM)/ Ham's F-12 medium (1:1) supplemented with epidermal growth factor (20 ng/mL), hydrocortisone (500 ng/mL), insulin (10 μg/mL), 2 mM glutamine and 10% foetal calf serum. After every 2-3 days, the cells were passaged using trypsin ethylenediamine tetra acetic acid (EDTA). The cells were seeded at a density of 10^4 cells mL-1 in flat-bottomed culture plates containing 96 wells each. […]
(§1) A single compound was designated with four wells followed by incubation of plates for 96h at 37°C. After incubation, medium was removed completely from the plates followed by addition of MTT (0.4 mg/mL in medium) to each well and subsequent incubation of plates for 3h. MTT (along with the medium) was removed and DMSO (150μL) was added to each well of the culture plates, followed by vortexing and subsequent measurement of absorbance (at 540 nm) using microplate reader. […]

[2] = tested on: A-549 (epithelial cancer cell line); assay: Antiproliferative MTT assay, A-549; type: cell-based; settings: Homo sapiens, A549; A-549, MTT; read-out: Antiproliferative activity IC50 ± SEM, A-549
Experimental: (§2) The MTT assay was performed using various cell lines in accordance with previously reported procedures[28]^,[29] to investigate the antiproliferative potential of VIa-k. Refer to Appendix A. […]
(§3) added (in 200 μL medium to yield a final concentration of 0.1% v/v) to the wells of plates. A single compound was designated with four wells followed by incubation of […]
as §1, with “After” for “A single compound was designated with four wells followed by incubation of plates for 96h at 37°C. After”, “reader. The data are shown as percentage inhibition of proliferation in comparison with controls containing 4.2.1.2. Assay for antiproliferative effect” for “reader.”
(§4) The percentage cytotoxicity of compounds was calculated using the following […]
(§5) Where ATC= Absorbance of treated cells and AC= Absorbance of control. […]
(§6) used as positive control in the assay. […]

[3] = tested on: MCF-7 (breast cancer cell line); assay: Antiproliferative MTT assay, MCF-7; type: cell-based; settings: Homo sapiens, MCF7; MCF-7, MTT; read-out: Antiproliferative activity IC50 ± SEM, MCF-7
Experimental: as §2, §3
as §1, with “After” for “A single compound was designated with four wells followed by incubation of plates for 96h at 37°C. After”, “reader. The data are shown as percentage inhibition of proliferation in comparison with controls containing 4.2.1.2. Assay for antiproliferative effect” for “reader.”
as §4, §5, §6

[4] = tested on: Panc-1 (pancreatic cancer cell line); assay: Antiproliferative MTT assay, Panc-1; type: cell-based; settings: Homo sapiens; Panc-1, MTT; read-out: Antiproliferative activity IC50 ± SEM, Panc-1
Experimental: as §2, §3
as §1, with “After” for “A single compound was designated with four wells followed by incubation of plates for 96h at 37°C. After”, “reader. The data are shown as percentage inhibition of proliferation in comparison with controls containing 4.2.1.2. Assay for antiproliferative effect” for “reader.”
as §4, §5, §6

[5] = tested on: HT-29 (colon cancer cell line); assay: Antiproliferative MTT assay, HT-29; type: cell-based; settings: Homo sapiens; HT-29, MTT; read-out: Antiproliferative activity IC50 ± SEM, HT-29
Experimental: as §2, §3
as §1, with “After” for “A single compound was designated with four wells followed by incubation of plates for 96h at 37°C. After”, “reader. The data are shown as percentage inhibition of proliferation in comparison with controls containing 4.2.1.2. Assay for antiproliferative effect” for “reader.”
as §4, §5, §6

[6] = tested on: four human cancer cell lines (Panc-1, MCF-7, HT-29, A-549); assay: Antiproliferative MTT assay, average (GI50) over the four cancer cell lines; type: cell-based; settings: for GI50: Homo sapiens, average of IC50 versus A-549, MCF-7, Panc-1, HT-29
Experimental: The average (GI50) versus the four cancer cell lines was chosen for ease of manipulation.
as §2, §3
as §1, with “After” for “A single compound was designated with four wells followed by incubation of plates for 96h at 37°C. After”, “reader. The data are shown as percentage inhibition of proliferation in comparison with controls containing 4.2.1.2. Assay for antiproliferative effect” for “reader.”
as §4, §5, §6

Structure (SMILES): CCCCCCn1c(-c2ccc(C(=O)O/N=C(\N)c3cccc4c3OCO4)cc2)nc(-c2ccccc2)c1-c1ccccc1 [Compound 4]
- IC50 (p38α): 0.19 µM
- IC50 (BRAF^V600E): 0.33 µM

Structure (SMILES): COc1cc(OC)cc(/C(N)=N/OC(=O)c2ccc3cn[nH]c3c2)c1 [Compound 5]
- GI50 (four cancer cell lines): 0.77 µM
- IC50 (EGFR): 0.089 µM
- IC50 (CDK2): 0.014 µM
- IC50 (c-Met): 0.0041 µM

Structure (SMILES): NC(=NOC(=O)/C=C/C=C/c1ccc2c(c1)OCO2)c1ccccc1 [VIa, N'-{[(2E,4E)-5-(2H-1,3-Benzodioxol-5-yl)penta-2,4-dienoyl]oxy}benzene carboximidamide]
- viability at 4 days, 50 µM [1]: 89%
- IC50 [2]: 0.095 ± 0.01 µM
- IC50 [3]: 0.097 ± 0.01 µM
- IC50 [4]: 0.104 ± 0.01 µM
- IC50 [5]: 0.105 ± 0.01 µM
- GI50 [6]: 0.1 µM
- melting point: 175 to 177 °C

Structure (SMILES): NC(=NOC(=O)/C=C/C=C/c1ccc2c(c1)OCO2)c1ccc(Cl)cc1 [VIb, N'-{[(2E,4E)-5-(2H-1,3-Benzodioxol-5-yl)penta-2,4-dienoyl]oxy}-4-chlorobenzene-1-carboximidamide]
- viability at 4 days, 50 µM [1]: 85%
- IC50 [2]: 0.055 ± 0.006 µM
- IC50 [3]: 0.057 ± 0.006 µM
- IC50 [4]: 0.059 ± 0.006 µM
- IC50 [5]: 0.058 ± 0.006 µM
- GI50 [6]: 0.057 µM
- melting point: 157 to 160 °C

Structure (SMILES): COc1ccc(C(N)=NOC(=O)/C=C/C=C/c2ccc3c(c2)OCO3)cc1 [VId, N'-{[(2E,4E)-5-(2H-1,3-Benzodioxol-5-yl)penta-2,4-dienoyl]oxy}-4-methoxybenzene-1-carboximidamide]
- viability at 4 days, 50 µM [1]: 91%
- IC50 [2]: 0.05 ± 0.005 µM
- IC50 [3]: 0.052 ± 0.005 µM
- IC50 [4]: 0.057 ± 0.005 µM
- IC50 [5]: 0.057 ± 0.005 µM
- GI50 [6]: 0.054 µM
- GI50 potency relative to VIi (less potent) ([6]; ratio of GI50 values): about 1.4 fold
